Test results published in PubChem BioAssay AID463206 (Broad Institute, 2010).
Active and inactive are the calls of the source.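 Rule for the calls: active = caspase luminescence falls with dose and the half-maximal concentration AC50 from the fitted curve is at or below a set limit; inconclusive = flat fit at 30 to 70% signal loss, or invalid fit; inactive = AC50 above the limit, or signal rises instead.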

The molecules below were run on INS-1E cytokine-induced caspase-3/7, Caspase-Glo luminescence, 48 h (assay: suppression of cytokine-driven beta-cell apoptosis – INS-1E rat cells, luminescence, orthogonal assay for beta-cell apoptosis protection project, dose response (AID 463206)).

| SMILES | AC50 |
| --- | --- |
| Cc1cc(O)c2c(c1)C(=O)C13C(=C2O)C(=O)[C@H]2[C@@H](O)[C@@H]1[C@H]1[C@H](O)[C@@H]3C(=O)C3=C(O)c4c(O)cc(C)cc4C(=O)C312 (stereo not given in full) | 21.6 µM |
| CC(=O)NC(c1cccs1)c1cc(F)c2cccnc2c1O (stereo not given) | > 26 µM (inactive) |
| Cc1ccc(NC(=O)C2CCN(S(=O)(=O)c3ccc4c(c3)NC(=O)C(C)S4)CC2)cc1Cl (stereo not given) | > 26 µM (inactive) |
| O=C(Nc1nc(-c2ccccc2)cs1)c1ccccc1NS(=O)(=O)c1ccc(F)cc1 | > 26 µM (inactive) |
| O=C1C=C(Nc2ccccc2O)c2ccccc2C1=O | > 26 µM (inactive) |
| Cc1ccc(C2CC(c3ccc(C)cc3)n3nc(N)nc3N2)cc1 (stereo not given) | > 26 µM (inactive) |
| S=C(Nc1ccc(Nc2ccccc2)cc1)Nc1ccccn1 | > 26 µM (inactive) |
| Cc1cccc(Cn2nnc3c2C(=O)c2ccccc2C3=O)c1 | > 26 µM (inactive) |
| CCN1CCN(c2c(Cl)cccc2NC(=O)c2ccc([N+](=O)[O-])o2)CC1 | > 26 µM (inactive) |
| C#CCOCCOCCOCCNc1nc(N2CCN(C(=O)CCCCCCCCCCNC(=O)[C@H](CCCCN)n3cc(C[C@@H](C)CC)nn3)CC2)nc(N2CCN(C(=O)CCCCCCCCCCNC(=O)[C@@H]([C@H](C)O)n3cc(C)nn3)CC2)n1 | > 26 µM (inactive) |
| CCC(=O)NC(c1cc(Cl)c2cccnc2c1O)C(C)C (stereo not given) | > 26 µM (inactive) |
| O=C(/C=C/NNC(=O)c1ccccc1)c1ccc([N+](=O)[O-])cc1 | > 26 µM (inactive) |
| N#CC(C#N)=NNc1ccc(-n2ccc(C(F)(F)F)n2)cc1 | > 26 µM (inactive) |
| O=C(O)c1ccc(S(=O)(=O)/N=C2\C=C(Nc3ccccc3F)C(=O)c3ccccc32)cc1 | > 26 µM (inactive) |
| O=C(NC(c1ccc(Cl)cc1)c1cc(Cl)c2cccnc2c1O)c1cccnc1 (stereo not given) | > 26 µM (inactive) |
| CC(C)OCCCNC(=S)N1CCC(C(=O)c2ccc(Cl)cc2)CC1 | > 26 µM (inactive) |
| O=C1/C(=C/c2ccc(N3CCOCC3)o2)SC(=Nc2ccccc2)N1CCc1c[nH]c2ccccc12 | > 26 µM (inactive) |
| CCN(CC)c1ccc(/C=N/N(c2ccccc2)c2ccccc2)c(O)c1 | > 26 µM (inactive) |
| Cc1cc(N2CCOCC2)nc(N)n1 | > 26 µM (inactive) |
| N#Cc1c2ccc([N+](=O)[O-])cc2[n+]([O-])n1-c1ccccc1 | > 26 µM (inactive) |
| Cc1ccc(C)c(S(=O)(=O)Nc2cc(SCC(=O)O)c(O)c3ccccc23)c1 | > 26 µM (inactive) |
| O=C(Nc1ccc(OCC(F)(F)C(F)F)c(C(F)(F)F)c1)c1ccccc1O | > 26 µM (inactive) |
| COc1cc(C)c(C(=O)CC(=O)c2c(C)cc(OC)cc2C)c(C)c1 | > 26 µM (inactive) |

| SMILES | AC50 |
| --- | --- |
| CCC1=NN(C(=O)c2ccccc2O)C(O)(c2ccccc2)C1 (stereo not given) | > 26 µM (inactive) |
| COc1ccc(Nc2nc(N3CCCC3)c3ccccc3n2)cc1 | 17.1 µM |
| CCN(CC)S(=O)(=O)c1cccc(NC(=O)c2cc(-c3cccs3)nn2-c2ccccc2)c1 | > 26 µM (inactive) |
| CN(C)c1cc[n+](Cc2c(Cl)cccc2Cl)cc1 | > 26 µM (inactive) |
| O=C(NCCCn1ccnc1)c1ccc(N2CCCCCC2)c([N+](=O)[O-])c1 | > 26 µM (inactive) |
| Cc1ccc(C)c(NC(=S)NC(NC(=O)Cc2cccc3ccccc23)C(Cl)(Cl)Cl)c1 (stereo not given) | > 26 µM (inactive) |
| Cc1ccc(-c2cn(-c3ccc(OC(F)F)cc3)c3[n+]2CCCCC3)cc1 | > 26 µM (inactive) |
| CC(=O)C1=NN(c2ccccc2)C(c2cccs2)N1c1ccc(N(C)C)cc1 (stereo not given) | > 26 µM (inactive) |
| CCC(=O)N1c2ccc(S(=O)(=O)N3CCN(c4ccc([N+](=O)[O-])cc4)CC3)cc2CC1C (stereo not given) | > 26 µM (inactive) |
| COCCNC(=O)CSC1=N/C(=C/c2ccc(Cl)c(Cl)c2)C(=O)N1c1ccccc1F | > 26 µM (inactive) |
| COc1cc(CNC(C)c2ccccc2)cc(Br)c1OCc1ccc(F)cc1 (stereo not given) | > 26 µM (inactive) |
| c1ccc(-c2nnc(CSc3ccc4c(c3)OCCO4)o2)cc1 | > 26 µM (inactive) |
| Nc1nc(F)nc2c1ncn2[C@@H]1O[C@H](CO)[C@@H](O)[C@H]1O | > 26 µM (inactive) |
| O=[N+]([O-])c1ccc(-c2nc3ccc([N+](=O)[O-])cc3[nH]2)cc1 | > 26 µM (inactive) |
| CN(C)c1cc[n+](CC(=O)Nc2ccc(Oc3ccccc3)cc2)cc1 | > 26 µM (inactive) |
| CCCNC(=O)c1ccc2c(=O)c(O)c(-c3ccc(Cl)c([N+](=O)[O-])c3)[nH]c2c1 | 3.22 µM |
| COC(=O)[C@H](CC(C)C)N(Cc1ccccc1)S(=O)(=O)N(Cc1ccc(OC)cc1)[C@@H](CC(C)C)C(=O)OC | > 26 µM (inactive) |
| N#Cc1ccc(NC(=O)Nc2ccc(Cl)cc2)cc1 | > 26 µM (inactive) |
| O=C1C=C(N2CCOCC2)c2ccccc2C1=O | > 26 µM (inactive) |
| COc1ccccc1C(CCNCc1ccc(N(C)C)cc1)c1ccc(OC(C)C)cc1 (stereo not given) | > 26 µM (inactive) |
| CCCCCCSc1cccc(-c2nc3ccccn3c2NCc2ccccc2)c1 | > 26 µM (inactive) |
| CCCCOCCCNc1ncnc2c1[nH]c1ccccc12 | > 26 µM (inactive) |
